Measurements reported in patent US6824998B2, “Compounds and methods for detecting tripeptidyl protease I” (University of Iowa Research Foundation, priority 2003, dated 2004).

Molecular target: T1, TPP-1 (Mus musculus, UniProt O89023)
T1 construct: from tissue; host or cells: frozen 10 µm sections of paraformaldehyde-fixed tissues (e.g. kidney) from C57BL/6J mice (Jackson Laboratory)
T1 sequence (O89023 195-562): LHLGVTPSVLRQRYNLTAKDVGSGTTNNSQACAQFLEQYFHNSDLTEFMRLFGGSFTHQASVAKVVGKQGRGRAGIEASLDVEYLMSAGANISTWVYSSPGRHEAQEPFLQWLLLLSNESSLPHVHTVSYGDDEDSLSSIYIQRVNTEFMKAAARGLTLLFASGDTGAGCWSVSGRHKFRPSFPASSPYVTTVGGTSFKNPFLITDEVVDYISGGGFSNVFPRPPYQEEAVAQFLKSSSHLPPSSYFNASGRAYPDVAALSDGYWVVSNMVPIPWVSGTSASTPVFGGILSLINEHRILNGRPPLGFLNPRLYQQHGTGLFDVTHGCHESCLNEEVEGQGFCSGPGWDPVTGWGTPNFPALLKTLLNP
Test: TPP-1 histochemical staining of frozen sections of murine tissues
Format: biochemical
Settings: for Effectiveness of p-NBA and p-AA versus benzaldehyde with regard to precipitate density and color: aldehyde comparison; for Hydrolysis by endogenous TPP-1 in murine tissues / Specificity of TPP-1 detection / background activity: frozen sections of murine tissues
Protocol: C57BL/6J mice (6 to 8 weeks old) were purchased from the Jackson Laboratory (Bar Harbor, Me.). The mice were sacrificed with an overdose of anesthetic and then transcardially perfused with 0.9% (w/v) saline solution, followed by 2% paraformaldehyde in 0.2 M phosphate buffer. The tissues were removed and post-fixed for 2 hours. After fixation, the tissues were cryoprotected by immersion in 25% sucrose and frozen in OCT compound (Sakura Finetek U.S.A., Inc, Torrance, Calif.). Sections (10 μm) were cut with a cryostat and mounted onto gelatin-coated slides.
Sections were embedded in 0.5% celloidin, followed by incubation in substrate solutions. The sections were incubated in substrate solutions containing 1 mM of the compound, 1 mg/mL of benzaldehyde (BA) or p-anisaldehyde (p-AA) or p-nitrobenzaldehyde (p-NBA) in 0.1 M acetate buffer (pH 4.5) at 37° C. for 4 hours. Slides were rinsed and cover-slipped before viewing on a Leica DM RBE microscope equipped with a Spot-RT Digital Camera and associated software. For all experiments, tissue staining was repeated on a minimum of 5 sections/animal per compound. A minimum of three individual animals was tested to confirm consistency of the results.
Five different compounds, compounds 10, 16, 20, 27, and 31, were tested histochemically on frozen sections of murine tissues. The substrates were systematically compared for sensitivity to TPP-1 activity using conditions to control the rate of crystalline formation and diffusion of product.

Autofluorescence of the final reaction product of TPP-1 histochemical staining (Benzaldehyde)	Color of the final reaction product of TPP-1 histochemical staining (Benzaldehyde)	Effectiveness of p-NBA and p-AA versus benzaldehyde with regard to precipitate density and color	Hydrolysis by endogenous TPP-1 in murine tissues	Specificity of TPP-1 detection / background activity	Autofluorescence of the final reaction product of TPP-1 histochemical staining (p-Anisaldehyde)	Color of the final reaction product of TPP-1 histochemical staining (p-Anisaldehyde)	Autofluorescence of the final reaction product of TPP-1 histochemical staining (p-Nitrobenzaldehyde)	Color of the final reaction product of TPP-1 histochemical staining (p-Nitrobenzaldehyde)	SMILES	Sensitivity for detecting TPP-1 activity (combination with p-AA, purple precipitates in areas of high endogenous enzyme activity (e.g., kidney))	Effectiveness as histochemical reagent for detecting TPP-1 (particularly when combined with p-anisaldehyde)
Autofluorescent	Yellow-green	more effective than benzaldehyde itself	readily hydrolyzed	low to no background activity	Autofluorescent	Yellow-green	Autofluorescent	Yellow-green	C[C@H](NC(=O)[C@@H]1CCCN1C(=O)CN)C(=O)n1nc2c3c(c(Cl)ccc31)C(=O)c1ccccc1-2 [Compound 10, Gly-L-Pro-L-Ala-5-chloro-1-anthra[1,9-cd]pyrozol-6(2H)-one]		
			no evidence of hydrolysis						C[C@H](NC(=O)[C@@H]1CCCN1C(=O)CN)C(=O)NNc1cccc2c1C(=O)c1ccccc1C2=O [Compound 16, Gly-L-Pro-L-Ala-1-anthraquinonylhydrazide]		
	Yellow-green	more effective than benzaldehyde itself	readily hydrolyzed	low to no background activity		Yellow-green		Yellow-green	C[C@H](N)C(=O)N[C@@H](C)C(=O)N[C@@H](Cc1ccccc1)C(=O)NNc1cccc2c1C(=O)c1ccccc1C2=O [Compound 27, L-Ala-L-Ala-L-Phe-1-anthraquinonylhydrazide]		
			no evidence of hydrolysis						C[C@H](N)C(=O)N[C@@H](C)C(=O)N[C@H](Cc1ccccc1)C(=O)NNc1cccc2c1C(=O)c1ccccc1C2=O [Compound 31, L-Ala-L-Ala-D-Phe-1-anthraquinonylhydrazide]		

SMILES	Autofluorescence of the final reaction product of TPP-1 histochemical staining (Benzaldehyde)	Color of the final reaction product of TPP-1 histochemical staining (Benzaldehyde)	Effectiveness of p-NBA and p-AA versus benzaldehyde with regard to precipitate density and color	Hydrolysis by endogenous TPP-1 in murine tissues	Specificity of TPP-1 detection / background activity	Autofluorescence of the final reaction product of TPP-1 histochemical staining (p-Anisaldehyde)	Color of the final reaction product of TPP-1 histochemical staining (p-Anisaldehyde)	Autofluorescence of the final reaction product of TPP-1 histochemical staining (p-Nitrobenzaldehyde)	Color of the final reaction product of TPP-1 histochemical staining (p-Nitrobenzaldehyde)	Sensitivity for detecting TPP-1 activity (combination with p-AA, purple precipitates in areas of high endogenous enzyme activity (e.g., kidney))	Effectiveness as histochemical reagent for detecting TPP-1 (particularly when combined with p-anisaldehyde)
NCC(=O)N1CCC[C@H]1C(=O)N[C@@H](CO)C(=O)NNc1cccc2c1C(=O)c1ccccc1C2=O [Compound 20, Gly-L-Pro-L-Ser-1-anthraquinonylhydrazide]		Brown	more effective than benzaldehyde itself	readily hydrolyzed	low to no background activity		Dark Purple		Brown	most sensitive	most effective histochemical reagent
